Measurements from PubChem BioAssay (NCI).
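GI50 is the concentration that inhibits growth by half. TGI is the concentration that stops growth completely.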

Assays:
Test in all cases: NCI tumour cell line growth inhibition, 384-well format
[1] = test system: NCI-H460 NSCLC
[2] = test system: RPMI-8226 leukemia
[3] = test system: HCT-15 colon
[4] = test system: MALME-3M melanoma
[5] = test system: NCI-H522 lung
[6] = test system: HL-60(TB) leukemia
[7] = test system: SN12C renal
[8] = test system: SK-MEL-5 melanoma
[9] = test system: CCRF-CEM leukemia
[10] = test system: SF-268 CNS
[11] = test system: HT29 colon
[12] = test system: SR leukemia
[13] = test system: SK-MEL-2 melanoma
[14] = test system: SK-OV-3 ovarian
[15] = test system: OVCAR-4 ovarian
[16] = test system: K-562 leukemia
[17] = test system: SF-295 CNS
[18] = test system: UACC-62 melanoma
[19] = test system: MDA-MB-435 melanoma
[20] = test system: A549 NSCLC
[21] = test system: MDA-MB-231 breast
[22] = test system: UACC-257 melanoma
[23] = test system: COLO 205 colon
[24] = test system: HCC-2998 colon
[25] = test system: SF-539 CNS
[26] = test system: SK-MEL-28 melanoma
[27] = test system: NCI/ADR-RES ovarian
[28] = test system: SW-620 colon
[29] = test system: MOLT-4 leukemia
[30] = test system: MCF7 breast
[31] = test system: DU-145 prostate
[32] = test system: OVCAR-5 ovarian
[33] = test system: SNB-75 CNS
[34] = test system: BT-549 breast
[35] = test system: OVCAR-3 ovarian
[36] = test system: U251 glioblastoma
[37] = test system: 786-0 renal
[38] = test system: HCT-116 colon
[39] = test system: PC-3 prostate
[40] = test system: EKVX NSCLC
[41] = test system: NCI-H322M lung
[42] = test system: HOP-62 NSCLC
[43] = test system: RXF 393 renal
[44] = test system: ACHN renal
[45] = test system: M14 melanoma
[46] = test system: UO-31 renal
[47] = test system: NCI-H226 lung

Structure (SMILES): CNCc1ccc(C)c(NC(=O)c2ccc(Nc3nc(-c4ccccc4)c4ccccc4n3)cc2)c1
- GI50 [1]: 1360 nM
- TGI [1]: 2710 nM
- GI50 [2]: 1720 nM
- TGI [2]: 3.1 µM
- GI50 [3]: 1050 nM
- TGI [3]: 2390 nM
- GI50 [4]: 1310 nM
- TGI [4]: 2590 nM
- GI50 [5]: 1840 nM
- TGI [5]: 3.25 µM
- GI50 [6]: 1040 nM
- TGI [6]: 2400 nM
- GI50 [7]: 1590 nM
- TGI [7]: 2960 nM
- GI50 [8]: 1390 nM
- TGI [8]: 2690 nM
- GI50 [9]: 1580 nM
- TGI [9]: 2940 nM
- GI50 [10]: 1770 nM
- TGI [10]: 3.17 µM
- GI50 [11]: 1410 nM
- TGI [11]: 2740 nM
- GI50 [12]: 342 nM
- TGI [12]: 799 nM
- GI50 [13]: 1810 nM
- TGI [13]: 3.21 µM
- GI50 [14]: 1780 nM
- TGI [14]: 3.18 µM
- GI50 [15]: 1860 nM
- TGI [15]: 3.4 µM
- GI50 [16]: 1400 nM
- TGI [16]: 2740 nM
- GI50 [17]: 1850 nM
- TGI [17]: 3.26 µM
- GI50 [18]: 1610 nM
- TGI [18]: 2970 nM
- GI50 [19]: 1910 nM
- TGI [19]: 3.34 µM
- GI50 [20]: 1800 nM
- TGI [20]: 3.24 µM
- GI50 [21]: 1840 nM
- TGI [21]: 3.25 µM
- GI50 [22]: 654 nM
- TGI [22]: 1600 nM
- GI50 [23]: 1600 nM
- TGI [23]: 2960 nM
- GI50 [24]: 1280 nM
- TGI [24]: 2550 nM
- GI50 [25]: 1710 nM
- TGI [25]: 3.1 µM
- GI50 [26]: 1690 nM
- TGI [26]: 3.06 µM
- GI50 [27]: 1860 nM
- TGI [27]: 3.33 µM
- GI50 [28]: 1850 nM
- TGI [28]: 3.28 µM
- GI50 [29]: 1510 nM
- TGI [29]: 2850 nM
- GI50 [30]: 1480 nM
- TGI [30]: 2850 nM
- GI50 [31]: 1930 nM
- TGI [31]: 3.48 µM
- GI50 [32]: 2040 nM
- TGI [32]: 3.99 µM
- GI50 [33]: 1850 nM
- TGI [33]: 3.3 µM
- GI50 [34]: 1700 nM
- TGI [34]: 3.09 µM
- GI50 [35]: 1780 nM
- TGI [35]: 3.2 µM
- GI50 [36]: 1730 nM
- TGI [36]: 3.13 µM
- GI50 [37]: 1500 nM
- TGI [37]: 2840 nM
- GI50 [38]: 1730 nM
- TGI [38]: 3.16 µM
- GI50 [39]: 1690 nM
- TGI [39]: 3.16 µM
- GI50 [40]: 1570 nM
- TGI [40]: 2950 nM
- GI50 [41]: 1740 nM
- TGI [41]: 3.14 µM
- GI50 [42]: 1910 nM
- TGI [42]: 3.33 µM
- GI50 [43]: 1460 nM
- TGI [43]: 2790 nM
- GI50 [44]: 1840 nM
- TGI [44]: 3.26 µM
- GI50 [45]: 2030 nM
- TGI [45]: 3.47 µM
- GI50 [46]: 1970 nM
- TGI [46]: 3.4 µM
- GI50 [47]: 1880 nM
- TGI [47]: 3.36 µM
